Data taken from patent publication US8338565B2, “Macrocyclic compounds for inhibition of tumor necrosis factor alpha” (Ensemble Therapeutics Corporation, priority 2008, dated 2012).
Numbered stars: 1 amine (or outer) side, 2 acyl side, 3 side chain; on linkers, the order of the positions; unused ones are H or OH. Bridge positions count the residues as written; N and C are the ends. Square brackets hold non-standard residues; d marks the D form. Peptide text beside a SMILES is read from it. * marks the point of attachment. Tartaroyl(2R,3R-(OAc)2) = CC(=O)O[C@@H](C(=O)[*:1])[C@@H](OC(C)=O)C(=O)[*:2]; Phe(4-CF3) = N[C@@H](Cc1ccc(C(F)(F)F)cc1)C(=O)O; Phe(4-COOH) = N[C@@H](Cc1ccc(C(=O)O)cc1)C(=O)O; Bip = N[C@@H](Cc1ccc(-c2ccccc2)cc1)C(=O)O; dBip = N[C@H](Cc1ccc(-c2ccccc2)cc1)C(=O)O; dPhe(4-NH2) = Nc1ccc(C[C@@H](N)C(=O)O)cc1; Phe(4-Br) = N[C@@H](Cc1ccc(Br)cc1)C(=O)O; Phe(4-NH2) = Nc1ccc(C[C@H](N)C(=O)O)cc1; dAla(2-furyl) = N[C@H](Cc1ccco1)C(=O)O; 1Nal = N[C@@H](Cc1cccc2ccccc12)C(=O)O; d(hhPhe) = N[C@H](CCCc1ccccc1)C(=O)O; d(hPhe) = N[C@H](CCc1ccccc1)C(=O)O; 3Pal = N[C@@H](Cc1cccnc1)C(=O)O; 2Thi = N[C@@H](Cc1cccs1)C(=O)O; d2Thi = N[C@H](Cc1cccs1)C(=O)O; Suc = O=C(CCC(=O)[*:2])[*:1]; Nphe = O=C(O)CNCc1ccccc1; X1 = O=C(O)C1CCN(*)C1; Bn = c1ccc(C*)cc1; GABA = NCCCC(=O)O; βAla = NCCC(=O)O

These compounds were tested against T1, TNFα / TNFα receptor (TNFα R1/Fc) (Homo sapiens, UniProt P01375) (assay: Inhibition of binding of TNFα to the TNFα receptor (plate ELISA competition)). Conditions: Activity (IC50, inhibition of TNFα binding to TNFα R1/Fc), Table 2.
T1 construct: purchased R&D Systems
Summary of the method: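 Compound dilutions were preincubated 30 min at RT with 8.33 nM TNFα R1/Fc in PBST with 2% DMSO, then added to wells coated with 15 nM TNFα for 30 min. Bound receptor was detected with HRP anti-human Fc and TMB, read as A450.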

T1 sequence (P01375 77-233 limits assumed, species assumed): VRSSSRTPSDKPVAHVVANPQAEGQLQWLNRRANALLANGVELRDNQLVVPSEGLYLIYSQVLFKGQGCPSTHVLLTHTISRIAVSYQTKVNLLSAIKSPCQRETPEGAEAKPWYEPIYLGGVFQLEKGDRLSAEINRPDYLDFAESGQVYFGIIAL

| Compound | IC50 [µM] |
| --- | --- |
| O=C1COc2ccc(cc2)C[C@@H](C(=O)N[C@H](CCc2ccccc2)C(=O)O)NC(=O)[C@H](CCc2ccccc2)NC(=O)[C@@H](Cc2ccc(-c3ccccc3)cc2)NC(=O)[C@H](Cc2c[nH]c3ccccc23)N1 [Compound 743] | < 10 |
| O=C1COc2ccc(cc2)C[C@H](C(=O)N[C@H](CCc2ccccc2)C(=O)O)NC(=O)[C@H](Cc2c[nH]c3ccccc23)NC(=O)[C@@H](Cc2ccc(-c3ccccc3)cc2)NC(=O)[C@H](Cc2ccncc2)N1 [Compound 740] | 10 to 30 |
| C[C@H](C(=O)O)N(C)C(=O)[C@@H]1Cc2ccc(cc2)OCC(=O)N[C@@H](Cc2cccs2)C(=O)N[C@H](Cc2ccc(-c3ccccc3)cc2)C(=O)N[C@@H](CCc2ccccc2)C(=O)N1 [Compound 576] | < 10 |

Same assay, conditions: Table 2; read-out: Activity (IC50, inhibition of TNFα binding to TNFα R1/Fc)

| IC50 [µM] | Compound |
| --- | --- |
| 10 to 30 | Nc1ccc(C[C@H](NC(=O)[C@@H]2Cc3ccc(cc3)NC(=O)CCC(=O)N[C@H](CCc3ccccc3)C(=O)N[C@@H](Cc3ccc(-c4ccccc4)cc3)C(=O)N[C@H](Cc3ccccc3)C(=O)N2)C(=O)O)cc1 [Compound 505] ([d(hPhe)][Bip][dF][Phe(4-NH2)][Phe(4-NH2)]-OH; linker N-4 via Suc) |
| < 10 | O=C(O)CCCNC(=O)[C@@H]1Cc2ccc(cc2)OCC(=O)N[C@@H](Cc2ccncc2)C(=O)N[C@H](Cc2ccc(-c3ccccc3)cc2)C(=O)N[C@@H](CCc2ccccc2)C(=O)N1 [Compound 560] |
| > 100 | O=C1COc2ccc(cc2)C[C@@H](C(=O)N[C@@H](Cc2ccc(O)cc2)C(=O)O)NC(=O)[C@H](Cc2ccccc2)NC(=O)[C@@H](Cc2ccc(-c3ccccc3)cc2)NC(=O)[C@H](Cc2cccs2)N1 [Compound 387] |
| 10 to 30 | O=C1CCC(=O)N[C@H](CCc2ccccc2)C(=O)N[C@@H](Cc2ccc(C(F)(F)F)cc2)C(=O)N[C@H](Cc2ccccc2)C(=O)Nc2ccc(cc2)C[C@@H](C(=O)O)N1 [Compound 552] |
| < 10 | O=C(O)CCCNC(=O)[C@@H]1Cc2ccc(cc2)OCC(=O)N[C@@H](Cc2ccncc2)C(=O)N[C@H](Cc2ccc(-c3ccccc3)cc2)C(=O)N[C@@H](Cc2c[nH]c3ccccc23)C(=O)N1 [Compound 722] |
| < 10 | O=C1CCNC(=O)c2ccc(cc2)C[C@@H](C(=O)N[C@H](Cc2ccccc2)C(=O)O)NC(=O)[C@@H](Cc2ccccc2)NC(=O)[C@H](Cc2ccc(-c3ccccc3)cc2)NC(=O)[C@@H](CCc2ccccc2)N1 [Compound 423] ([βAla][d(hPhe)][Bip][dF][Phe(4-COOH)][dF]-OH; lactam N-5) |
| > 100 | O=C1CCC(=O)N[C@H](Cc2ccccc2)C(=O)N[C@@H](Cc2ccc(-c3ccccc3)cc2)C(=O)N[C@H](CCc2ccccc2)C(=O)N[C@H](C(=O)N[C@@H](Cc2ccccc2)C(=O)O)Cc2ccc(cc2)N1 [Compound 456] ([dF][Bip][d(hPhe)][Phe(4-NH2)]F-OH; linker N-4 via Suc) |
| > 100 | O=C1COc2ccc(cc2)C[C@@H](C(=O)O)NC(=O)[C@@H](CCc2ccccc2)NC(=O)[C@H](Cc2ccc(-c3ccccc3)cc2)NC(=O)[C@@H](Cc2ccncc2)N1 [Compound 523] |
| < 10 | O=C1COc2ccc(cc2)C[C@@H](C(=O)N[C@H](Cc2ccccc2)C(=O)O)NC(=O)[C@H](CCc2ccccc2)NC(=O)[C@@H](Cc2ccc(-c3ccccc3)cc2)NC(=O)[C@H](Cc2ccc(-c3ccncc3)cc2)N1 [Compound 582] |
| < 10 | Cc1ccc(C[C@@H]2NC(=O)COc3ccc(cc3)C[C@@H](C(=O)O)NC(=O)[C@H](CCc3ccccc3)NC(=O)[C@@H](Cc3ccc(-c4ccccc4)cc3)NC2=O)cc1 [Compound 692] |
| < 10 | O=C1COc2ccc(cc2)C[C@@H](C(=O)N[C@@H](Cc2ccccc2)c2nnn[nH]2)NC(=O)[C@H](CCc2ccccc2)NC(=O)[C@@H](Cc2ccc(-c3ccccc3)cc2)NC(=O)[C@H](Cc2ccncc2)N1 [Compound 592] |
| > 100 | O=C(O)CNC(=O)[C@@H]1Cc2ccc(cc2)NC(=O)CCC(=O)N[C@H](Cc2cccs2)C(=O)N[C@@H](Cc2ccc(-c3ccccc3)cc2)C(=O)N[C@H](CCc2ccccc2)C(=O)N1 [Compound 453] ([d2Thi][Bip][d(hPhe)][Phe(4-NH2)]G-OH; linker N-4 via Suc) |
| > 100 | O=C1CCC(=O)N[C@@H](Cc2cccs2)C(=O)N[C@H](Cc2ccc(-c3ccccc3)cc2)C(=O)N[C@H](Cc2ccccc2)C(=O)N[C@@H](C(=O)O)Cc2ccc(cc2)N1 [Compound 501] ([2Thi][dBip][dF][dPhe(4-NH2)]-OH; linker N-4 via Suc) |

Continued, compound first:

| Compound | IC50 [µM] |
| --- | --- |
| O=C1CCC(=O)N[C@H](CCc2ccccc2)C(=O)N[C@@H](Cc2ccc(-c3ccccc3)cc2)C(=O)N[C@H](Cc2ccccc2)C(=O)N[C@H](C(=O)N2CCC(C(=O)O)C2)Cc2ccc(cc2)N1 (some centres unmarked) [Compound 353] ([d(hPhe)][Bip][dF][Phe(4-NH2)]-X1; linker N-4 via Suc) | > 100 |
| O=C(O)[C@@H]1Cc2ccc(cc2)NC(=O)[C@H](O)[C@@H](O)C(=O)N[C@H](Cc2cccs2)C(=O)N[C@H](Cc2ccc(-c3ccccc3)cc2)C(=O)N[C@H](Cc2ccccc2)C(=O)N1 [Compound 269] | > 100 |
| O=C1CCC(=O)N[C@H](CCc2ccccc2)C(=O)N[C@@H](Cc2cccc3ccccc23)C(=O)N[C@H](Cc2ccccc2)C(=O)N[C@H](C(=O)O)Cc2ccc(cc2)N1 [Compound 108] ([d(hPhe)][1Nal][dF][Phe(4-NH2)]-OH; linker N-4 via Suc) | 10 to 30 |
| O=C1CCC(=O)N[C@H](Cc2cccs2)C(=O)N[C@@H](Cc2ccc(-c3ccccc3)cc2)C(=O)N[C@@H](Cc2ccccc2)C(=O)N[C@H](C(=O)O)Cc2ccc(cc2)N1 [Compound 195] ([d2Thi][Bip]F[Phe(4-NH2)]-OH; linker N-4 via Suc) | > 100 |
| N#Cc1ccccc1C[C@H]1NC(=O)[C@H](Cc2ccc(-c3ccccc3)cc2)NC(=O)[C@@H](Cc2cccs2)NC(=O)[C@H](O)[C@@H](O)C(=O)Nc2ccc(cc2)C[C@@H](C(=O)O)NC1=O [Compound 285] | 30 to 100 |
| O=C1CCC(=O)N[C@H](Cc2cccs2)C(=O)N[C@@H](Cc2ccc(-c3ccccc3)cc2)C(=O)N[C@@H](Cc2cccnc2)C(=O)N[C@H](C(=O)O)Cc2ccc(cc2)N1 [Compound 52] ([d2Thi][Bip][3Pal][Phe(4-NH2)]-OH; linker N-4 via Suc) | > 100 |
| O=C1COc2ccc(cc2)C[C@@H](C(=O)O)NC(=O)[C@H](Cc2ccccc2)NC(=O)[C@@H](Cc2ccc(-c3ccccc3)cc2)NC(=O)[C@@H](Cc2cccs2)N1 [Compound 211] | 30 to 100 |
| O=C1CCC(=O)N[C@H](CCCc2ccccc2)C(=O)N[C@@H](Cc2ccc(C(F)(F)F)cc2)C(=O)N[C@H](Cc2ccccc2)C(=O)N[C@H](C(=O)O)Cc2ccc(cc2)N1 [Compound 136] ([d(hhPhe)][Phe(4-CF3)][dF][Phe(4-NH2)]-OH; linker N-4 via Suc) | 30 to 100 |
| O=C(O)C[C@@H]1NC(=O)[C@H](Cc2ccc(-c3ccccc3)cc2)NC(=O)[C@@H](Cc2cccs2)NC(=O)CCC(=O)Nc2ccc(cc2)C[C@@H](C(=O)O)NC1=O [Compound 64] ([d2Thi][Bip]D[Phe(4-NH2)]-OH; linker N-4 via Suc) | > 100 |
| O=C1CCCNC(=O)c2ccc(cc2)C[C@@H](C(=O)O)NC(=O)[C@@H](Cc2ccccc2)NC(=O)[C@H](Cc2ccc(-c3ccccc3)cc2)NC(=O)[C@@H](CCc2ccccc2)N1 [Compound 249] ([GABA][d(hPhe)][Bip][dF][Phe(4-COOH)]-OH; lactam N-5) | > 100 |
| O=C(O)[C@@H]1Cc2ccc(cc2)NC(=O)[C@H](O)[C@@H](O)C(=O)N[C@H](Cc2cccs2)C(=O)N[C@@H](Cc2ccc(Br)cc2)C(=O)N[C@H](Cc2ccccc2)C(=O)N1 [Compound 293] | > 100 |
| O=C1CCC(=O)N[C@H](Cc2cccs2)C(=O)N[C@@H](Cc2ccc(-c3ccccc3)cc2)C(=O)N(Cc2ccccc2)CC(=O)N[C@H](C(=O)O)Cc2ccc(cc2)N1 [Compound 55] ([d2Thi][Bip][Nphe][Phe(4-NH2)]-OH; linker N-4 via Suc) | > 100 |
| O=C(O)C[C@H]1NC(=O)[C@H](Cc2ccc(-c3ccccc3)cc2)NC(=O)[C@@H](Cc2cccs2)NC(=O)CCC(=O)Nc2ccc(cc2)C[C@@H](C(=O)O)NC1=O [Compound 65] ([d2Thi][Bip][dD][Phe(4-NH2)]-OH; linker N-4 via Suc) | > 100 |
| O=C1CCC(=O)N[C@H](Cc2ccco2)C(=O)N[C@@H](Cc2ccc(-c3ccccc3)cc2)C(=O)N[C@H](Cc2ccccc2)C(=O)N[C@H](C(=O)O)Cc2ccc(cc2)N1 [Compound 123] ([dAla(2-furyl)][Bip][dF][Phe(4-NH2)]-OH; linker N-4 via Suc) | 30 to 100 |
| CC(=O)O[C@H]1C(=O)Nc2ccc(cc2)C[C@H](C(=O)O)NC(=O)[C@@H](Cc2ccccc2)NC(=O)[C@H](Cc2ccc(Br)cc2)NC(=O)[C@@H](Cc2ccccc2)NC(=O)[C@@H]1OC(C)=O [Compound 231] ([dF][Phe(4-Br)][dF][dPhe(4-NH2)]-OH; linker N-4 via Tartaroyl(2R,3R-(OAc)2)) | > 100 |
| CC(=O)N[C@H]1CC(=O)Nc2ccc(cc2)C[C@@H](C(=O)O)NC(=O)[C@@H](Cc2ccccc2)NC(=O)[C@H](Cc2ccc(-c3ccccc3)cc2)NC(=O)[C@@H](Cc2cccs2)NC1=O [Compound 375] (Ac-D[d2Thi][Bip][dF][Phe(4-NH2)]-OH; lactam 1-5) | > 100 |
| O=C1CCC(=O)N[C@H](Cc2cccs2)C(=O)N[C@@H](Cc2ccc(-c3ccccc3)cc2)C(=O)N[C@H](Cc2ccccc2)C(=O)N[C@H](C(=O)N2CCC[C@@H]2C(=O)O)Cc2ccc(cc2)N1 [Compound 32] ([d2Thi][Bip][dF][Phe(4-NH2)][dP]-OH; linker N-4 via Suc) | > 100 |
| COc1cccc(-c2ccc(C[C@@H]3NC(=O)[C@@H](CCc4ccccc4)NC(=O)CCC(=O)Nc4ccc(cc4)C[C@@H](C(=O)O)NC(=O)[C@@H](Cc4ccccc4)NC3=O)cc2)c1 [Compound 110] | 10 to 30 |
| O=C1CCC(=O)N[C@H](CCc2ccccc2)C(=O)N[C@@H](Cc2ccc(OCc3ccccc3)cc2)C(=O)N[C@H](Cc2ccccc2)C(=O)N[C@@H](C(=O)O)Cc2ccc(cc2)N1 [Compound 173] ([d(hPhe)]Y(Bn)[dF][dPhe(4-NH2)]-OH; linker N-4 via Suc) | 10 to 30 |
